Laboratory results from PubChem BioAssay (NCI).
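Cultured in 96-well plates, cells were exposed to test compound for 48 hours across five concentrations. Abbreviation: GI50, concentration required for 50% inhibition of growth. TGI is the concentration that stops growth completely.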

Assays:
Assay in all cases: NCI-60 cell line screen, 48 h
[1] = test system: RPMI-8226 leukemia
[2] = test system: MCF7 breast
[3] = test system: HCC-2998 colon
[4] = test system: HCT-116 colon
[5] = test system: UACC-62 melanoma
[6] = test system: ACHN renal
[7] = test system: NCI-H522 lung
[8] = test system: MDA-MB-435
[9] = test system: A498 renal
[10] = test system: SK-MEL-2 melanoma

SMILES | TGI [1] [µM] | TGI [2] [µM] | TGI [3] [µM] | TGI [4] [µM] | TGI [5] [µM] | TGI [6] [µM] | TGI [7] [µM] | TGI [8] [µM] | TGI [9] [µM] | TGI [10] [µM] | GI50 [2] [nM] | GI50 [3] [nM] | GI50 [10] [nM] | GI50 [4] [nM] | GI50 [5] [nM] | GI50 [6] [nM] | GI50 [7] [nM] | GI50 [8] [nM] | GI50 [9] [nM]
O=C(CNc1ccccc1[N+](=O)[O-])Nn1c(-c2ccccc2)nc2ccccc2c1=O | 89.5 | 34.2 | 26.3 | 41.4 | 23.4 | 56.9 | > 10 | 60.1 | 81.1 | – | – | – | – | – | – | – | – | – | –
O=CC12C3CCC1C2C(=O)C3 (configuration not stated) | > 100 | > 100 | > 100 | > 100 | > 100 | > 100 | > 100 | > 100 | – | > 100 | – | – | – | – | – | – | – | – | –
CN(C)C(=O)OC(Cn1cncn1)(Cn1cncn1)c1ccc(Cl)cc1Cl | > 100 | > 100 | > 100 | – | – | – | > 100 | > 100 | > 100 | > 100 | – | – | – | – | – | – | – | – | –
CN(/N=C/c1ccnc2ccccc12)c1ccc(Cl)cc1[N+](=O)[O-] | – | > 100 | > 100 | > 100 | > 100 | > 100 | > 100 | > 100 | > 100 | > 100 | – | – | – | – | – | – | – | – | –
S=C(c1c[nH]c2ccccc12)N1CCN(Cc2ccccc2)CC1 | 51.9 | 46.7 | – | 29.1 | 33.7 | > 100 | – | 28.8 | 37.3 | 34.1 | – | – | – | – | – | – | – | – | –
Clc1ccc(C(SCc2ccccc2)SCc2ccccc2)cc1 | > 10 | > 10 | > 10 | > 10 | > 10 | > 10 | > 10 | – | > 10 | > 10 | – | – | – | – | – | – | – | – | –
Cc1noc(NC2=CC(=O)C(=O)c3ccccc32)c1C | 36 | 17.9 | – | > 100 | 22.9 | > 100 | 79.2 | 0.397 | > 100 | 5.8 | – | – | – | – | – | – | – | – | –
CN(c1ccccc1Cl)S(=O)(=O)c1ccc([N+](=O)[O-])cc1 | > 100 | > 100 | > 100 | > 100 | > 100 | > 100 | > 100 | > 100 | – | > 100 | – | – | – | – | – | – | – | – | –
CC(C)C(/C=C/c1ccc(Cl)c(Cl)c1)=N\NC(=O)N/N=C(/C=C/c1ccc(Cl)c(Cl)c1)C(C)C | > 100 | > 100 | > 100 | – | > 100 | > 100 | > 100 | > 100 | > 100 | – | – | – | – | – | – | – | – | – | –
O=[N+]([O-])c1cc2c(cc1/C=N/n1c(CO)nc3ccccc31)OCO2 | > 100 | > 100 | – | > 100 | > 100 | > 100 | – | > 100 | > 100 | > 100 | – | – | – | – | – | – | – | – | –
CC1=NN(c2nc(N)nc(CC#N)n2)C(C)(C)C1 | > 100 | > 100 | > 100 | > 100 | > 100 | > 100 | – | > 100 | > 100 | > 100 | – | – | – | – | – | – | – | – | –
C=CCO[C@]1(CC=C)C(=O)C(=O)OC1C1COC(C)(C)O1 (some centres not stated) | 73 | 42 | > 100 | 74.7 | – | 31.1 | 43.6 | > 100 | > 100 | – | – | – | – | – | – | – | – | – | –
Cc1ccc(/C(O)=C/c2nc3ccccc3s/c2=N/CS(=O)(=O)c2ccc(C)cc2)cc1 | > 10 | > 10 | > 10 | > 10 | > 10 | > 10 | > 10 | > 10 | – | – | – | – | – | – | – | – | – | – | –
NNC(=O)c1nnn(CCc2ccccc2)c1C(=O)NN | > 100 | > 100 | > 100 | > 100 | – | > 100 | – | > 100 | – | > 100 | – | – | – | – | – | – | – | – | –
Nc1nc(N)c2cc(NCc3ccc(Cl)c(Cl)c3)ccc2n1 | – | 2.75 | 2.51 | 1.58 | 2.7 | 2.58 | 2.77 | 2.4 | 2.41 | 3.37 | 1360 | 1160 | 1820 | 391 | 1390 | 1310 | 1310 | 1110 | 1160
CC(C)C1=CC23CCC4C(C)(C(=O)O)CCCC4(C)C2CC1C1C(=O)N(c2ccccc2)C(=O)C13 (configuration not stated) | > 100 | – | – | > 100 | > 100 | > 100 | > 100 | – | – | 73.3 | – | – | – | – | – | – | – | – | –
C/C=C/C1OC(O)(C(C)C(O)[C@H](C)C2OC(=O)/C(OC)=C/C(C)=C/[C@@H](C)[C@@H](O)[C@@H](C)C(O)C(C)C/C(C)=C/C=C/C2OC)C[C@@H](OC2CC(O)C(OC(N)=O)C(C)O2)C1C (some centres not stated) | – | 7.65 | < 0.01 | 1.42 | < 0.01 | 12.1 | < 0.01 | 2.58 | 3.68 | < 0.01 | – | – | – | – | – | – | – | – | –
Clc1ccc(C2Nc3ccccc3C3=NCCN32)cc1 (configuration not stated) | 42.4 | 57.3 | – | 71.5 | 32.3 | > 100 | – | 39.8 | 63.7 | 41.3 | – | – | – | – | – | – | – | – | –
O=C(NCc1cccc2ccccc12)N/N=C\c1ccc(Cl)cc1 | > 100 | > 100 | > 100 | > 100 | > 100 | > 100 | > 100 | > 100 | – | > 100 | – | – | – | – | – | – | – | – | –
COc1cc2c(cc1OC)C1(COc3cc(O)c(O)c(O)c3C1=O)C2 (configuration not stated) | > 50 | 41.1 | – | > 50 | > 50 | > 50 | > 50 | > 50 | > 50 | > 50 | – | – | – | – | – | – | – | – | –
COc1c(O)cc2c(c1O)C(=O)/C(=C/c1ccc(O)cc1)CO2 | 37.2 | > 100 | – | – | 40 | 48.3 | 33.8 | > 100 | > 100 | > 100 | – | – | – | – | – | – | – | – | –
O=C1OC(=O)c2cc(S(=O)(=O)c3ccc4c(c3)C(=O)OC4=O)ccc21 | > 100 | > 100 | > 100 | > 100 | > 100 | > 100 | > 100 | > 100 | – | > 100 | – | – | – | – | – | – | – | – | –
COc1cc2c(=O)cnoc2cc1O | > 100 | > 100 | > 100 | – | > 100 | > 100 | > 100 | > 100 | > 100 | > 100 | – | – | – | – | – | – | – | – | –
